The results in this text go back to publication PMC6528465 (ACS infectious diseases, 2018).

This assay has as its system Mtb K204. Type of assay: cell-based, Mycobacterium tuberculosis. As to conditions: no inhibitor.

Molecules are shown by their SMILES. A value given as a limit tells only on which side of the number the result lay.

For the compound `NC[C@H]1O[C@H](O[C@H]2[C@H](O)[C@@H](O[C@H]3O[C@H](CO)[C@@H](O)[C@H](N)[C@H]3O)[C@H](N)C[C@@H]2N)[C@H](O)[C@@H](O)[C@@H]1O` [KAN, kanamycin], the “K204 MICKAN” value was greater than 10 µg/mL.
